This note sets out measurements from PubChem BioAssay (NCI).

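Grown in 96-well plates, cells were treated for 48 hours with each compound at five concentrations. Insufficient inhibition: endpoint recorded as highest concentration tested. TGI denotes the concentration required for complete inhibition of growth.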 Where a SMILES comes first, the peptide text is derived from it. The star is where a group is joined. Cbz = O=C(OCc1ccccc1)*; OBn = c1ccc(CO*)cc1

One assay relates to A498 renal. Briefly: NCI tumour cell line growth inhibition, 48 h.
In the case of `O=C(O)C1CC2C3CCC2C1C3=O` (configuration not stated), the TGI is greater than 100 µM.
In the case of `CC(C)c1ccccc1SC1CC(=O)CC(Sc2ccccc2C(C)C)C12O[C@H](c1ccccc1)[C@@H](c1ccccc1)O2` (some centres not stated), the TGI was greater than 100 µM.
Same read-out and setting: with `CSC1=N[C@H](c2ccccc2)CS1` the figure was greater than 100 µM; with `CCOC(=O)/C(C)=C\[C@@]1(C)O[C@@H](C)[C@@](C)(OC(C)=O)[C@@H]1OC(C)=O`, greater than 100 µM; with `COc1ccc(/C=C2/C(C)=NN(c3cccc(Cl)c3)/C2=N/c2nc3ccccc3s2)cc1`, 62.4 µM.
Regarding `CSc1nc2ccccc2c(=O)n1/N=C1\C(=O)N(CN2CCCCC2)c2ccc(Cl)cc21`, the TGI was determined as 96.6 µM.

Another assay has as its system MDA-MB-435. Kind of assay: NCI tumour cell line growth inhibition, 48 h.
Consider `COC(=O)CNC(=O)C(C)NC(=O)C(CC(=O)OCc1ccccc1)NC(=O)OCc1ccccc1` (stereo not drawn) (Cbz-Asp(OBn)-Ala-Gly-OMe; configuration not given here), for which the TGI is greater than 100 µM.
On the same count and under the same terms, with `COC(=O)N1C[C@@]2(C=CC3(CC2)OCCO3)c2ccccc21` the figure was 74.5 µM; with `N#CC1(C#N)C2CCCCC23OC(=N)C1(C#N)C(c1ccco1)O3` (configuration not stated), 52.8 µM; with `CC1C2CC(CC(=O)N2)C1(C)C` (configuration not stated), greater than 100 µM.
Still for that read-out and setting: with `CCOC(=O)/C(O)=C(/C=N\C(=S)Nc1ccccc1Cl)C(=O)OCC` the figure was greater than 100 µM.
In turn, `O=C(NC(C(F)(F)F)(C(F)(F)F)P(=O)(c1ccccc1)c1ccccc1)C(C(F)(F)F)C(F)(F)F` gave a TGI of 37.7 µM.
Consider `COC(=O)[C@H](Cc1ccccc1)NC(=O)NCCN(CCNC(=O)N[C@@H](Cc1ccccc1)C(=O)OC)C(=O)N[C@@H](Cc1ccccc1)C(=O)OC`, for which the TGI was 45 µM.
The compound `COc1cc2c(cc1OC)-c1[nH]c3ccc(C#N)cc3c1CC(=O)N2` yielded a TGI greater than 100 µM.
Same read-out and setting: with `Cn1nc(Cc2ccc(Cl)cc2)n(N)c1=O` the figure was greater than 100 µM; with `Cc1occc1C(=S)Nc1ccc(Cl)c(C(=O)OCC(F)(F)F)c1`, 37.4 µM.
On the same count and under the same terms, with `O=C(O)C1CC2C3CCC2C1C3=O` (configuration not stated) the figure was greater than 100 µM; with `CC(C)c1ccccc1SC1CC(=O)CC(Sc2ccccc2C(C)C)C12O[C@H](c1ccccc1)[C@@H](c1ccccc1)O2` (some centres not stated), 55.2 µM; with `CSC1=N[C@H](c2ccccc2)CS1`, greater than 100 µM.
Compound `CCOC(=O)/C(C)=C\[C@@]1(C)O[C@@H](C)[C@@](C)(OC(C)=O)[C@@H]1OC(C)=O` yielded a TGI greater than 100 µM.
Compound `COc1ccc(/C=C2/C(C)=NN(c3cccc(Cl)c3)/C2=N/c2nc3ccccc3s2)cc1` gave a TGI greater than 100 µM.
Still for that read-out and setting: the same measure for `CSc1nc2ccccc2c(=O)n1/N=C1\C(=O)N(CN2CCCCC2)c2ccc(Cl)cc21`: greater than 100 µM.

For another assay, the system named is BT-549 breast. Kind of assay: NCI tumour cell line growth inhibition, 48 h.
Consider `COC(=O)CNC(=O)C(C)NC(=O)C(CC(=O)OCc1ccccc1)NC(=O)OCc1ccccc1` (stereo not drawn) (Cbz-Asp(OBn)-Ala-Gly-OMe; configuration not given here), for which the TGI is greater than 100 µM.
Consider `N#CC1(C#N)C2CCCCC23OC(=N)C1(C#N)C(c1ccco1)O3` (configuration not stated), for which the TGI came to 30.3 µM.
Take `CC1C2CC(CC(=O)N2)C1(C)C` (configuration not stated): the TGI is greater than 100 µM.
Turning to `COC(=O)[C@H](Cc1ccccc1)NC(=O)NCCN(CCNC(=O)N[C@@H](Cc1ccccc1)C(=O)OC)C(=O)N[C@@H](Cc1ccccc1)C(=O)OC`, the TGI is 39.2 µM.
Still for that read-out and setting: with `COc1cc2c(cc1OC)-c1[nH]c3ccc(C#N)cc3c1CC(=O)N2` the figure was greater than 100 µM; with `Cn1nc(Cc2ccc(Cl)cc2)n(N)c1=O`, greater than 100 µM; with `Cc1occc1C(=S)Nc1ccc(Cl)c(C(=O)OCC(F)(F)F)c1`, 42.7 µM.
In turn, `CC(C)c1ccccc1SC1CC(=O)CC(Sc2ccccc2C(C)C)C12O[C@H](c1ccccc1)[C@@H](c1ccccc1)O2` (some centres not stated) displayed a TGI greater than 100 µM.
Same read-out and setting: the same measure for `CSC1=N[C@H](c2ccccc2)CS1`: greater than 100 µM.
In turn, `CSc1nc2ccccc2c(=O)n1/N=C1\C(=O)N(CN2CCCCC2)c2ccc(Cl)cc21` had a TGI of 80.7 µM.

The test system of a further assay is OVCAR-4 ovarian. Kind of assay: NCI tumour cell line growth inhibition, 48 h.
Regarding `COC(=O)N1C[C@@]2(C=CC3(CC2)OCCO3)c2ccccc21`, the TGI was greater than 100 µM.
`CC1C2CC(CC(=O)N2)C1(C)C` (configuration not stated) had a TGI greater than 100 µM.
On the same count and under the same terms, with `CCOC(=O)/C(O)=C(/C=N\C(=S)Nc1ccccc1Cl)C(=O)OCC` the figure was greater than 100 µM; with `O=C(NC(C(F)(F)F)(C(F)(F)F)P(=O)(c1ccccc1)c1ccccc1)C(C(F)(F)F)C(F)(F)F`, greater than 100 µM.
Still for that read-out and setting: with `COC(=O)[C@H](Cc1ccccc1)NC(=O)NCCN(CCNC(=O)N[C@@H](Cc1ccccc1)C(=O)OC)C(=O)N[C@@H](Cc1ccccc1)C(=O)OC` the figure was 30 µM.
The same measure, in the same setting: with `COc1cc2c(cc1OC)-c1[nH]c3ccc(C#N)cc3c1CC(=O)N2` the figure was greater than 100 µM.
`Cc1occc1C(=S)Nc1ccc(Cl)c(C(=O)OCC(F)(F)F)c1`: the TGI was 45.9 µM.
Same read-out and setting: the same measure for `O=C(O)C1CC2C3CCC2C1C3=O` (configuration not stated): greater than 100 µM; for `CC(C)c1ccccc1SC1CC(=O)CC(Sc2ccccc2C(C)C)C12O[C@H](c1ccccc1)[C@@H](c1ccccc1)O2` (some centres not stated): greater than 100 µM.
`CSC1=N[C@H](c2ccccc2)CS1` returned a TGI greater than 100 µM.
Still for that read-out and setting: the same measure for `CCOC(=O)/C(C)=C\[C@@]1(C)O[C@@H](C)[C@@](C)(OC(C)=O)[C@@H]1OC(C)=O`: greater than 100 µM.
The same measure, in the same setting: with `COc1ccc(/C=C2/C(C)=NN(c3cccc(Cl)c3)/C2=N/c2nc3ccccc3s2)cc1` the figure was greater than 100 µM; with `CSc1nc2ccccc2c(=O)n1/N=C1\C(=O)N(CN2CCCCC2)c2ccc(Cl)cc21`, greater than 100 µM.

For a further assay, the system named is MOLT-4 leukemia. Briefly: NCI tumour cell line growth inhibition, 48 h.
As for `COC(=O)CNC(=O)C(C)NC(=O)C(CC(=O)OCc1ccccc1)NC(=O)OCc1ccccc1` (stereo not drawn) (Cbz-Asp(OBn)-Ala-Gly-OMe; configuration not given here), the TGI is greater than 100 µM.
Still for that read-out and setting: with `COC(=O)N1C[C@@]2(C=CC3(CC2)OCCO3)c2ccccc21` the figure was greater than 100 µM; with `N#CC1(C#N)C2CCCCC23OC(=N)C1(C#N)C(c1ccco1)O3` (configuration not stated), greater than 100 µM; with `CCOC(=O)/C(O)=C(/C=N\C(=S)Nc1ccccc1Cl)C(=O)OCC`, greater than 100 µM.
In turn, `O=C(NC(C(F)(F)F)(C(F)(F)F)P(=O)(c1ccccc1)c1ccccc1)C(C(F)(F)F)C(F)(F)F` gave a TGI greater than 100 µM.
Still for that read-out and setting: with `COC(=O)[C@H](Cc1ccccc1)NC(=O)NCCN(CCNC(=O)N[C@@H](Cc1ccccc1)C(=O)OC)C(=O)N[C@@H](Cc1ccccc1)C(=O)OC` the figure was 45 µM; with `COc1cc2c(cc1OC)-c1[nH]c3ccc(C#N)cc3c1CC(=O)N2`, greater than 100 µM; with `Cn1nc(Cc2ccc(Cl)cc2)n(N)c1=O`, greater than 100 µM.
Still for that read-out and setting: with `Cc1occc1C(=S)Nc1ccc(Cl)c(C(=O)OCC(F)(F)F)c1` the figure was 55.8 µM.
Same read-out and setting: with `O=C(O)C1CC2C3CCC2C1C3=O` (configuration not stated) the figure was greater than 100 µM; with `CC(C)c1ccccc1SC1CC(=O)CC(Sc2ccccc2C(C)C)C12O[C@H](c1ccccc1)[C@@H](c1ccccc1)O2` (some centres not stated), greater than 100 µM; with `CSC1=N[C@H](c2ccccc2)CS1`, greater than 100 µM.
`CCOC(=O)/C(C)=C\[C@@]1(C)O[C@@H](C)[C@@](C)(OC(C)=O)[C@@H]1OC(C)=O`: the TGI is greater than 100 µM.
`COc1ccc(/C=C2/C(C)=NN(c3cccc(Cl)c3)/C2=N/c2nc3ccccc3s2)cc1` registered a TGI of 63.8 µM.
Still for that read-out and setting: the same measure for `CSc1nc2ccccc2c(=O)n1/N=C1\C(=O)N(CN2CCCCC2)c2ccc(Cl)cc21`: 39.9 µM.

The next assay has as its system M14 melanoma. Briefly: NCI tumour cell line growth inhibition, 48 h.
`COC(=O)CNC(=O)C(C)NC(=O)C(CC(=O)OCc1ccccc1)NC(=O)OCc1ccccc1` (stereo not drawn) (Cbz-Asp(OBn)-Ala-Gly-OMe; configuration not given here): the TGI is greater than 100 µM.
On the same count and under the same terms, the same measure for `COC(=O)N1C[C@@]2(C=CC3(CC2)OCCO3)c2ccccc21`: greater than 100 µM; for `N#CC1(C#N)C2CCCCC23OC(=N)C1(C#N)C(c1ccco1)O3` (configuration not stated): 41.6 µM.
The same measure, in the same setting: with `CC1C2CC(CC(=O)N2)C1(C)C` (configuration not stated) the figure was greater than 100 µM; with `CCOC(=O)/C(O)=C(/C=N\C(=S)Nc1ccccc1Cl)C(=O)OCC`, greater than 100 µM.
`O=C(NC(C(F)(F)F)(C(F)(F)F)P(=O)(c1ccccc1)c1ccccc1)C(C(F)(F)F)C(F)(F)F` had a TGI of 36.3 µM.
On the same count and under the same terms, with `COC(=O)[C@H](Cc1ccccc1)NC(=O)NCCN(CCNC(=O)N[C@@H](Cc1ccccc1)C(=O)OC)C(=O)N[C@@H](Cc1ccccc1)C(=O)OC` the figure was 45.7 µM.
